Source: ChEMBL document CHEMBL3044921, “Synthesis, characterization, and SAR studies of new (1H-indol-3-yl)alkyl-3-(1H-indol-3-yl)propanamide derivatives as possible antimicrobial and antitubercular agents” (2013)
In brackets after ≈: the same amount, converted by molar mass.

Columns and labels:
[1] = system: Aspergillus flavus; assay: Antifungal activity against Aspergillus flavus NCIM 524 assessed as growth inhibition at […] to […] ug/ml after 3 to 4 days by agar well diffusion method; type: functional
[2] = system: Escherichia coli; assay: Antibacterial activity against Escherichia coli […] assessed as growth inhibition after 16 to 18 hr by serial plate dilution method; type: functional
[3] = system: Mycobacterium tuberculosis; assay: Antitubercular activity against Mycobacterium tuberculosis H37Rv ATCC 27294 assessed as growth inhibition at 1 to 100 ug/mL after 7 days by resazurin reduction test; type: functional; settings: for MIC: Mycobacterium tuberculosis, H37Rv ATCC 27294, 168 h
[4] = system: Klebsiella pneumoniae; assay: Antibacterial activity against Klebsiella pneumoniae assessed as growth inhibition after 16 to 18 hr by serial plate dilution method; type: functional
[5] = system: Klebsiella pneumoniae; type: functional
Description: Antibacterial activity against Klebsiella pneumoniae assessed as growth inhibition at 1.56 to 25 ug/ml after 3 to 4 days by agar well diffusion method

[6] = system: Staphylococcus aureus; type: functional, ATCC 25923
Description: Antibacterial activity against Staphylococcus aureus ATCC 25923 assessed as growth inhibition at 1.56 to 25 ug/ml after 3 to 4 days by agar well diffusion method

[7] = system: Pseudomonas aeruginosa; assay: Antibacterial activity against Pseudomonas aeruginosa ATCC 27853 assessed as growth inhibition after 16 to 18 hr by serial plate dilution method; type: functional
[8] = system: Escherichia coli; type: functional, ATCC 24922
Description: Antibacterial activity against Escherichia coli ATCC 24922 assessed as growth inhibition at 1.56 to 25 ug/ml after 3 to 4 days by agar well diffusion method

[9] = system: Mycolicibacterium smegmatis; assay: Antitubercular activity against Mycobacterium smegmatis ATCC 19420 assessed as growth inhibition at 1 to 100 ug/mL after 7 days by resazurin reduction test; type: functional; settings: ATCC 19420, 168 h
[10] = system: Talaromyces marneffei; assay: Antifungal activity against Talaromyces marneffei assessed as growth inhibition at […] to […] ug/ml after 3 to 4 days by agar well diffusion method; type: functional
[11] = system: Streptococcus pyogenes; type: functional
Description: Antibacterial activity against Streptococcus pyogenes assessed as growth inhibition at 1.56 to 25 ug/ml after 3 to 4 days by agar well diffusion method

[12] = system: Trichophyton mentagrophytes; assay: Antifungal activity against Trichophyton mentagrophytes assessed as growth inhibition after 3 to 4 days by serial plate dilution method; type: functional
[13] = system: Aspergillus fumigatus; assay: Antifungal activity against Aspergillus fumigatus NCIM 902 assessed as growth inhibition after 3 to 4 days by serial plate dilution method; type: functional
[14] = system: Trichophyton mentagrophytes; assay: Antifungal activity against Trichophyton mentagrophytes assessed as growth inhibition at […] to […] ug/ml after 3 to 4 days by agar well diffusion method; type: functional
[15] = system: Candida albicans; assay: Antifungal activity against Candida albicans assessed as growth inhibition after 3 to 4 days by serial plate dilution method; type: functional
[16] = system: Aspergillus fumigatus; assay: Antifungal activity against Aspergillus fumigatus NCIM 902 assessed as growth inhibition at […] to […] ug/ml after 3 to 4 days by agar well diffusion method; type: functional
[17] = system: Aspergillus flavus; assay: Antifungal activity against Aspergillus flavus NCIM 524 assessed as growth inhibition after 3 to 4 days by serial plate dilution method; type: functional
[18] = system: Mycolicibacterium fortuitum; assay: Antitubercular activity against Mycobacterium fortuitum ATCC 19542 assessed as growth inhibition at 1 to 100 ug/mL after 7 days by resazurin reduction test; type: functional; settings: ATCC 19542, 168 h
[19] = system: Candida albicans; assay: Antifungal activity against Candida albicans assessed as growth inhibition at […] to […] ug/ml after 3 to 4 days by agar well diffusion method; type: functional
[20] = system: Streptococcus pyogenes; assay: Antibacterial activity against Streptococcus pyogenes assessed as growth inhibition after 16 to 18 hr by serial plate dilution method; type: functional
[21] = system: Staphylococcus aureus; assay: Antibacterial activity against Staphylococcus aureus ATCC 25923 assessed as growth inhibition after 16 to 18 hr by serial plate dilution method; type: functional
[22] = system: Talaromyces marneffei; assay: Antifungal activity against Talaromyces marneffei assessed as growth inhibition after 3 to 4 days by serial plate dilution method; type: functional
[23] = system: Pseudomonas aeruginosa; type: functional, ATCC 27853
Description: Antibacterial activity against Pseudomonas aeruginosa ATCC 27853 assessed as growth inhibition at 1.56 to 25 ug/ml after 3 to 4 days by agar well diffusion method

[24] = system: Mycobacterium tuberculosis; assay: Antitubercular activity against Mycobacterium tuberculosis H37Rv ATCC 27294 assessed as growth inhibition at 0.3125 to 5 ug/mL after 7 days by resazurin reduction test; type: functional; settings: H37Rv ATCC 27294, 168 h
[25] = system: Mycolicibacterium fortuitum; assay: Antitubercular activity against Mycobacterium fortuitum ATCC 19542 assessed as growth inhibition at 0.3125 to 5 ug/mL after 7 days by resazurin reduction test; type: functional; settings: ATCC 19542, 168 h

| SMILES | diameter of the inhibition zone (DIZ) [1] | MIC [2] | growth inhibition (GI) [3] | MIC [3] | MIC [4] | diameter of the inhibition zone (DIZ) [5] | diameter of the inhibition zone (DIZ) [6] | MIC [7] | diameter of the inhibition zone (DIZ) [10] | diameter of the inhibition zone (DIZ) [11] | MIC [12] | MIC [13] | diameter of the inhibition zone (DIZ) [14] | MIC [15] | diameter of the inhibition zone (DIZ) [16] | MIC [17] | diameter of the inhibition zone (DIZ) [19] | MIC [20] | MIC [22] | diameter of the inhibition zone (DIZ) [23] | further results |
| --- | --- | --- | --- | --- | --- | --- | --- | --- | --- | --- | --- | --- | --- | --- | --- | --- | --- | --- | --- | --- | --- |
| O=C(CCc1c[nH]c2ccc(Cl)cc12)NCCCc1c[nH]c2ccc(Cl)cc12 | 16 mm | 25 µg/mL (≈ 60.3 µM) | 0% | > 100 µg/mL | 25 µg/mL (≈ 60.3 µM) | <10 mm | <10 mm | 25 µg/mL (≈ 60.3 µM) | 16 mm | 16 mm | 6.25 µg/mL (≈ 15.1 µM) | 6.25 µg/mL (≈ 15.1 µM) | 16 mm | 6.25 µg/mL (≈ 15.1 µM) | 16 mm | 6.25 µg/mL (≈ 15.1 µM) | 16 mm | 6.25 µg/mL (≈ 15.1 µM) | 6.25 µg/mL (≈ 15.1 µM) | <10 mm | diameter of the inhibition zone (DIZ) [8]: <10 mm; MIC [9]: > 100 µg/mL; MIC [18]: > 100 µg/mL; MIC [21]: 25 µg/mL (≈ 60.3 µM) |
| Cc1c(CCCNC(=O)CCc2c[nH]c3ccc(Cl)cc23)c2cc(OC(F)(F)F)ccc2n1C | 16 mm | 12.5 µg/mL (≈ 25.4 µM) | 90% | 10 µg/mL (≈ 20.3 µM) | 12.5 µg/mL (≈ 25.4 µM) | 11 mm | 11 mm | 25 µg/mL (≈ 50.8 µM) | 16 mm | 16 mm | 25 µg/mL (≈ 50.8 µM) | 25 µg/mL (≈ 50.8 µM) | <10 mm | 12.5 µg/mL (≈ 25.4 µM) | <10 mm | 6.25 µg/mL (≈ 12.7 µM) | 11 mm | 6.25 µg/mL (≈ 12.7 µM) | 6.25 µg/mL (≈ 12.7 µM) | <10 mm | diameter of the inhibition zone (DIZ) [8]: 11 mm; MIC [9]: > 100 µg/mL; MIC [24]: 10 µg/mL (≈ 20.3 µM); MIC [18]: 10 µg/mL (≈ 20.3 µM); MIC [21]: 12.5 µg/mL (≈ 25.4 µM); MIC [25]: 10 µg/mL (≈ 20.3 µM) |
| O=C(CCc1c[nH]c2ccc(Cl)cc12)NCCCc1c[nH]c2ccc(OC(F)(F)F)cc12 | <10 mm | 6.25 µg/mL (≈ 13.5 µM) | 0% | > 100 µg/mL | 6.25 µg/mL (≈ 13.5 µM) | 16 mm | 16 mm | 6.25 µg/mL (≈ 13.5 µM) | <10 mm | 11 mm | 25 µg/mL (≈ 53.9 µM) | 25 µg/mL (≈ 53.9 µM) | <10 mm | 25 µg/mL (≈ 53.9 µM) | <10 mm | 25 µg/mL (≈ 53.9 µM) | <10 mm | 12.5 µg/mL (≈ 26.9 µM) | 25 µg/mL (≈ 53.9 µM) | 16 mm | diameter of the inhibition zone (DIZ) [8]: 16 mm; MIC [9]: > 100 µg/mL; MIC [18]: > 100 µg/mL; MIC [21]: 6.25 µg/mL (≈ 13.5 µM) |
| Cc1c(CCCNC(=O)CCc2cn(C)c3ccc(Cl)cc23)c2cc(OC(F)(F)F)ccc2n1C | 16 mm | 12.5 µg/mL (≈ 24.7 µM) | <90% | 10 µg/mL (≈ 19.8 µM) | 12.5 µg/mL (≈ 24.7 µM) | 11 mm | 11 mm | 25 µg/mL (≈ 49.4 µM) | 16 mm | <10 mm | 12.5 µg/mL (≈ 24.7 µM) | 12.5 µg/mL (≈ 24.7 µM) | 11 mm | 25 µg/mL (≈ 49.4 µM) | 11 mm | 6.25 µg/mL (≈ 12.4 µM) | <10 mm | 25 µg/mL (≈ 49.4 µM) | 6.25 µg/mL (≈ 12.4 µM) | <10 mm | diameter of the inhibition zone (DIZ) [8]: 11 mm; MIC [9]: > 100 µg/mL; MIC [24]: 1.25 µg/mL (≈ 2.47 µM); MIC [18]: > 100 µg/mL; MIC [21]: 12.5 µg/mL (≈ 24.7 µM) |
| Cn1cc(CCCNC(=O)CCc2c[nH]c3ccc(Cl)cc23)c2cc(Cl)ccc21 | <10 mm | 12.5 µg/mL (≈ 29.2 µM) | 0% | > 100 µg/mL | 12.5 µg/mL (≈ 29.2 µM) | 11 mm | <10 mm | 12.5 µg/mL (≈ 29.2 µM) | <10 mm | <10 mm | 6.25 µg/mL (≈ 14.6 µM) | 6.25 µg/mL (≈ 14.6 µM) | 16 mm | 25 µg/mL (≈ 58.4 µM) | 16 mm | 25 µg/mL (≈ 58.4 µM) | <10 mm | 25 µg/mL (≈ 58.4 µM) | 25 µg/mL (≈ 58.4 µM) | 11 mm | diameter of the inhibition zone (DIZ) [8]: 11 mm; MIC [9]: > 100 µg/mL; MIC [18]: > 100 µg/mL; MIC [21]: 25 µg/mL (≈ 58.4 µM) |
| Cc1c(CNC(=O)CCc2c[nH]c3ccc(Cl)cc23)c2cc(OC(F)(F)F)ccc2n1C | 11 mm | 12.5 µg/mL (≈ 26.9 µM) | <90% | > 100 µg/mL | 25 µg/mL (≈ 53.9 µM) | <10 mm | 16 mm | 6.25 µg/mL (≈ 13.5 µM) | 11 mm | <10 mm | 12.5 µg/mL (≈ 26.9 µM) | 12.5 µg/mL (≈ 26.9 µM) | 11 mm | 6.25 µg/mL (≈ 13.5 µM) | 11 mm | 12.5 µg/mL (≈ 26.9 µM) | 16 mm | 25 µg/mL (≈ 53.9 µM) | 12.5 µg/mL (≈ 26.9 µM) | 16 mm | diameter of the inhibition zone (DIZ) [8]: 11 mm; MIC [9]: 10 µg/mL (≈ 21.6 µM); MIC [24]: 5 µg/mL (≈ 10.8 µM); MIC [18]: > 100 µg/mL; MIC [21]: 6.25 µg/mL (≈ 13.5 µM) |
| Cn1cc(CNC(=O)CCc2c[nH]c3ccc(Cl)cc23)c2cc(Cl)ccc21 | 16 mm | 12.5 µg/mL (≈ 31.2 µM) | 90% | > 100 µg/mL | 12.5 µg/mL (≈ 31.2 µM) | 11 mm | 11 mm | 25 µg/mL (≈ 62.5 µM) | 16 mm | 16 mm | 6.25 µg/mL (≈ 15.6 µM) | 6.25 µg/mL (≈ 15.6 µM) | 16 mm | 6.25 µg/mL (≈ 15.6 µM) | 16 mm | 6.25 µg/mL (≈ 15.6 µM) | 16 mm | 6.25 µg/mL (≈ 15.6 µM) | 6.25 µg/mL (≈ 15.6 µM) | <10 mm | diameter of the inhibition zone (DIZ) [8]: 11 mm; MIC [9]: 10 µg/mL (≈ 25 µM); MIC [24]: 1.25 µg/mL (≈ 3.12 µM); MIC [18]: 10 µg/mL (≈ 25 µM); MIC [21]: 12.5 µg/mL (≈ 31.2 µM); MIC [25]: 10 µg/mL (≈ 25 µM) |
| Cc1c(CNC(=O)CCc2cn(C)c3ccc(Cl)cc23)c2cc(OC(F)(F)F)ccc2n1C | <10 mm | 12.5 µg/mL (≈ 26.2 µM) | <90% | > 100 µg/mL | 12.5 µg/mL (≈ 26.2 µM) | 11 mm | 11 mm | 25 µg/mL (≈ 52.3 µM) | <10 mm | <10 mm | 6.25 µg/mL (≈ 13.1 µM) | 6.25 µg/mL (≈ 13.1 µM) | 16 mm | 12.5 µg/mL (≈ 26.2 µM) | 16 mm | 25 µg/mL (≈ 52.3 µM) | 11 mm | 25 µg/mL (≈ 52.3 µM) | 25 µg/mL (≈ 52.3 µM) | <10 mm | diameter of the inhibition zone (DIZ) [8]: 11 mm; MIC [9]: 10 µg/mL (≈ 20.9 µM); MIC [24]: 5 µg/mL (≈ 10.5 µM); MIC [18]: > 100 µg/mL; MIC [21]: 12.5 µg/mL (≈ 26.2 µM) |
| Cc1cc(C2CCCCC2)n(O)c(=O)c1.NCCO [CICLOPIROX OLAMINE] | 25 mm |  |  |  |  |  |  |  | 20 mm |  | 6.25 µg/mL | 6.25 µg/mL | 27 mm | 6.25 µg/mL | 25 mm | 6.25 µg/mL | 20 mm |  | 6.25 µg/mL |  |  |
| O=C(O)c1cn(C2CC2)c2cc(N3CCNCC3)c(F)cc2c1=O [CIPROFLOXACIN] |  |  |  |  | 1.56 µg/mL (≈ 4.71 µM) | 21 mm | 30 mm |  |  | 23 mm |  |  |  |  |  |  |  | 6.25 µg/mL (≈ 18.9 µM) |  | 16 mm |  |
